Laboratory results reported in patent publication US20260355182A1, “ISOQUINOLINE DERIVATIVE, SYNTHESIS METHOD THEREFOR, AND USE THEREOF” (Harbin Gloria Pharmaceuticals Co., Ltd., priority 2023, published 2026).

Columns and labels:
[1] = system: phosphoglycerate kinase 1 (Pgk1); settings: cited from earlier work
rats = settings: combined administration of terazosin and propranolol; cited from earlier work
[2] = system: mouse and rat models of Parkinson's disease, Alzheimer's disease, multiple system atrophy; settings: cited from earlier work
Wild-type mice (C57BL/6) = test: Blood glucose in wild-type mice; format: in vivo; settings: 0.1 mg/kg i.p., C57BL/6, fasted 6 hours after administration
Protocol: Wild-type mice (C57BL/6) aged 3 months to 4 months under normal feeding conditions were intraperitoneally injected with different drugs at 0.1 mg/kg. Mice injected with normal saline served as the control group. Mice were fasted for 6 hours after administration. Blood was collected from the tail of each mouse to measure blood glucose levels. Each group consisted of 9 mice.

Pgk1 = target: T1, Pgk1 (Homo sapiens, UniProt P00558); test: In vitro biochemical Pgk1 enzymatic activity assay (NADH production); parameters: GAPDH-coupled NADH assay; settings: 1.6 mM GAP, 1 mM β-NAD, 1 mM ADP, 20 ng/μL GAPDH, pH 8.6, 10 minutes
T1 sequence (P00558 1-417): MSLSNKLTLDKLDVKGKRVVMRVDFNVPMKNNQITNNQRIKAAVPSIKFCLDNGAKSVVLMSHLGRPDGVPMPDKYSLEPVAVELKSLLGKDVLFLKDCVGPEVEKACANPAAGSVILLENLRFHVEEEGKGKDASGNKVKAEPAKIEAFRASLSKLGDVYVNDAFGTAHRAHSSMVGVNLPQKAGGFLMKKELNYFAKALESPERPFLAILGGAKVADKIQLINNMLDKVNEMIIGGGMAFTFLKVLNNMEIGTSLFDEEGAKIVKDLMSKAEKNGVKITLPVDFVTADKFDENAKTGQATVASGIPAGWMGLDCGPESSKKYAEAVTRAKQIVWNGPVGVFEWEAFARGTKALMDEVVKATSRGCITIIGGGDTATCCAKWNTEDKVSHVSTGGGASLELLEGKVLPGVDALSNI
Protocol: Human Pgk1 cDNA was cloned into the pEASYTM-E2 vector (TransGen Biotech) containing a His tag. Protein expression was induced in BL21(DE3) chemocompetent cells (TransGen Biotech) with 0.5 mM IPTG. After lysing cells in extraction buffer (20 mM sodium phosphate, 500 mM NaCl, 5 mM imidazole, 5% glycerol, protease inhibitor cocktail, pH 7.9), the supernatant was purified with nickel beads (AdarBiotech). The His-tagged Pgk1 was eluted with the elution buffer (20 mM sodium phosphate, 500 mM NaCl, 80 mM imidazole, protease inhibitor cocktail, pH 7.9). The activity of Pgk1 can be measured by monitoring the rate of NADH production, as NADH accumulated as the reaction proceeded. Purified Pgk1-His protein ([…]) was added to the reaction buffer (20 mM Tris, 100 mM NaCl, 2 mM DTT, 0.1 mM MgSO4, 10 mM NaHPO4, pH 8.6), and the substrates (1.6 mM GAP, 1 mM β-NAD, 1 mM ADP, 20 ng/μL GAPDH) was added. […] After reaction for 10 minutes at room temperature, the absorbance wavelength at 339 nm was measured using a microplate reader (Molecular Devices, SpectraMax i3x), and this wavelength corresponds to NADH levels.

patients = settings: cited from earlier work
[3] = system: MPTP-induced Parkinson's disease model mice; test: MPTP-induced mouse model of Parkinson's disease, rotarod and tyrosine hydroxylase Western blot; format: in vivo; settings: terazosin 0.1 mg/Kg
Protocol: Male mice aged 3 months were used and fed normally. The acute MPTP modeling method (see Sonsalla P K, Heikkila R E. The influence of dose and dosing interval on MPTP-induced dopaminergic neurotoxicity in mice. Eur J Pharmacol 1986; 129(3): 339-45.) was employed. MPTP was injected intraperitoneally four times in total at a dose of 20 mg/kg body weight per injection, with a 2-hour interval between each injection. MPTP was dissolved in normal saline, and the control group received an equal dose of normal saline. T2 was dissolved in DMSO and diluted with normal saline to the desired concentration. Accordingly, equal doses of DMSO and normal saline were administered during the treatment. On the day of MPTP model establishment, mice were administered either T2 (treatment group) or DMSO (control group). Subsequently, mice in all groups were administered the corresponding drugs daily. Mouse behavior was tested using a rotarod (E103, UGO BASILE). First, mice were pre-trained for two consecutive days at a constant speed of 15 revolutions per minute (15 rpm) until they could stay on the rod for more than 60 seconds. On day 7 after MPTP injection, mice were tested on the rotarod in an accelerating mode (2 rpm to 45 rpm). The latency to fall from the rotarod was recorded, and the behavior was monitored by a camera. After the experiment, the mice were sacrificed, and the striatal brain tissue was harvested for Western blot assay. Tyrosine hydroxylase (TH) is a protein specifically expressed in dopaminergic neurons. Therefore, whether dopaminergic neurons were damaged can be determined by Western blot assay using an anti-TH antibody.

SK-N-SH cells = test: Dose-effect relationship on cellular ATP levels in cultured SK-N-SH cells; format: cell-based, human
Protocol: SK-N-SH cells were seeded in a 6-well plate at a density of 6×10^4 per well. Cells were cultured for 12 hours under 5% O2, and the drug was added. Cells were harvested after 48 hours. Cellular ATP levels were measured using a Promega ATP assay kit. The experiment was repeated 5 times to 7 times.

primary mouse neurons = test: Cellular status and glucose metabolism-related gene expression in primary mouse neurons; format: cell-based; settings: normoxic, 72 h; TZ 10 μM, T6 10 PM (so in the source)
Source text: In FIG. 10, A) representative bright-field images show the cellular status of primary neurons after treatment. […] The analyzed genes included G6PD, HK2, LDHA, PDK1, PGK1, and SLC2A1/GLUT1. […] TZ treatment produced a similar but generally more moderate metabolic gene-response profile, including increased LDHA, PDK1, and SLC2A1/GLUT1 expression. […] Error bars indicate variation among measurements. […] The results support the use of T6 or related compounds as agents capable of regulating neuronal metabolic status and glucose metabolism-associated pathways.

db/db mice = test: Acute glucose-response assay in non-fasted db/db mice; format: in vivo; settings: s.c., 2 h; TZ 0.5, liraglutide 0.6, T6 0.5 mg/Kg
Protocol: The db/db mice were used to evaluate the glucose-lowering activity of compound T6 in comparison with reference metabolic agents (TZ 0.5 mg/Kg, liraglutide 0.6 mg/Kg, T6 0.5 mg/Kg). In FIG. 15, A) for the acute glucose-response assay, drugs were administered to non-fasted db/db mice. Immediately after drug administration (s. c.), mice were deprived of food and water, and blood glucose levels were measured from tail blood samples 2 h later. The relative percentage change in blood glucose was calculated by comparing glucose levels before and after treatment in the same animal. […] HbA1c levels were then measured using a glycated hemoglobin A1c enzyme-linked immunosorbent assay, also referred to as a mouse HbA1c ELISA assay. […] Data are presented as mean±error bars, with individual circles representing individual animals. Statistical significance is indicated as P<0.001 (**) and P<0.0001 (***).

[4] = system: MPTP-induced Parkinsonian mouse model; test: MPTP-induced Parkinsonian mouse model, rotarod and TH Western blot (T6); format: in vivo; settings: TZ, MPTP 20 mg/kg
Protocol: Mice were administered MPTP at 20 mg/kg to induce Parkinsonian motor impairment and dopaminergic neuronal injury. […] In FIG. 13, A) motor coordination and endurance were assessed using the rotarod test and are expressed as the time remaining on the rotating rod. […] Actin was used as a loading control. […] Data are presented as mean±error bars, with individual points representing biological replicates. Significance of one-way ANOVA analysis is indicated as P<0.05 (*), P<0.01 (**), and P<0.001 (***).

diabetic patients = settings: cited from earlier work

Compound: COc1cc2nc(N3CCN(C(=O)C4CCCO4)CC3)nc(N)c2cc1OC (stereo not drawn) [Terazosin, terazosin]
- Effect on Pgk1, high concentration ([1]; high concentrations): can inhibit Pgk1
- Effect on Pgk1, low concentration ([1]; low concentrations): can activate Pgk1
- Binding to / activation of Pgk1 ([1]; previous studies): can activate Pgk1
- Dissociation of ATP from Pgk1 protein ([1]; published studies): promoted the dissociation of ATP from the Pgk1 protein
- Blood glucose in rats (rats): did not affect blood glucose in rats
- Therapeutic and prophylactic effects [2]: exerts therapeutic and prophylactic effects
- Hypoglycemic effect (Wild-type mice (C57BL/6)): did not exhibit a hypoglycemic effect
- Concentration for best activation of Pgk1 (Pgk1; role: activator): 1 µM
- Effect on Pgk1 enzymatic activity at high concentration (Pgk1; role: inhibitor, 100 μM): can inhibit Pgk1 enzymatic activity
- Side effects (patients): intraoperative floppy iris syndrome (IFIS), hypotension, fatigue, dizziness, syncope, and blurred vision
- Motor ability (rotarod) ([3]; day 7 after MPTP): improved the motor ability of mice
- Tyrosine hydroxylase level / dopaminergic neurons ([3]; striatum, Western blot): exerted a protective effect on dopaminergic neurons
- Inhibition of cell growth (SK-N-SH cells; 50 μM, SK-N-SH cells): a tendency to inhibit cell growth
- Optimal dose for cellular ATP levels (SK-N-SH cells; doses 5, 10 and 50 μM, 48 hours, 5% O2): 10 µM
- Neuronal cellular morphology/status (primary mouse neurons): detectable changes in neuronal cellular morphology/status
- Acute change in blood glucose (db/db mice): weaker acute effect
- Rotarod performance (TZ) [4]: weaker improvement
- Blood glucose and lipid levels (diabetic patients): efficacy is extremely limited or ineffective
